Source: US20240101546A1, “HETEROARYL-ACETYLENES, PHARMACEUTICAL COMPOSITIONS THEREOF, AND THEIR THERAPEUTIC APPLICATIONS” (Eubulus Biotherapeutics Inc., priority 2020, published 2024)

Each molecule was assayed on hepatocellular carcinoma cell line Hub-7 (assay: Cell proliferation assay, Hub-7 (CELL-TITER GLO)). Settings: Hub-7 cells, 24 h incubation, cell viability by CELL-TITER GLO, top concentration 10 μM; read-out: EC50, Inhibition of Hub-7 Cell Proliferation.
Type: cell-based
Procedure, shortened: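 Hub-7 cells, 4,000 per well, seeded overnight, then exposed 24 h to compound from 10 μM top in 3-fold serial dilution. Viability read by CELL-TITER GLO luminescence; EC50 derived and binned into potency categories.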

`C#Cc1nc(C(=O)NC2Cc3ccccc3C2)cs1` [Compound C62, N-(2,3-Dihydro-1H-inden-2-yl)-2-ethynylthiazole-4-carboxamide] and `C#Cc1nc(C(=O)N[C@H]2CCc3ccccc32)cs1` [Compound C71, (S)—N-(2,3-Dihydro-1H-inden-1-yl)-2-ethynylthiazole-4-carboxamide] fall in the same range of EC50: 200 to 1000 nM for the first, 200 to 1000 nM for the second.

First: C#Cc1nc(C(=O)NCc2ccccc2C#N)cs1 [Compound C63, N-(2-Cyanobenzyl)-2-ethynylthiazole-4-carboxamide]
Second: C#Cc1nc(C(=O)NCc2ccccc2CO)cs1 [Compound C70, 2-Ethynyl-N-(2-(hydroxymethyl)benzyl)thiazole-4-carboxamide]
The EC50 of the first is lower: ≤ 200 nM for the first, 1000 to 5000 nM for the second. The first is the more potent here.

First: C#Cc1nc(C(=O)NCc2ccc3ccccc3c2)cs1 [Compound C64, 2-Ethynyl-N-(naphthalen-2-ylmethyl)thiazole-4-carboxamide]
Second: C#Cc1nc(C(=O)NCc2ccc3ncccc3c2)cs1 [Compound C96, 2-Ethynyl-N-(quinolin-6-ylmethyl)thiazole-4-carboxamide]
The EC50 of the first is lower: ≤ 200 nM for the first, 1000 to 5000 nM for the second.

First: C#Cc1nc(C(=O)NCc2cccc(-c3cccnc3)c2)cs1 [Compound C65, 2-Ethynyl-N-(3-(pyridin-3-yl)benzyl)thiazole-4-carboxamide]
Second: C#Cc1nc(C(=O)NCc2ccc(-c3cccnc3)cc2)cs1 [Compound C93, 2-Ethynyl-N-(4-(pyridin-3-yl)benzyl)thiazole-4-carboxamide]
The EC50 of the first is higher: 1000 to 5000 nM for the first, 200 to 1000 nM for the second.

`C#Cc1nc(C(=O)NCc2ccc3ncsc3c2)cs1` [Compound C66, N-(Benzo[d]thiazol-6-ylmethyl)-2-ethynylthiazole-4-carboxamide] and `C#Cc1nc(C(=O)NCc2cccc(N)c2)cs1` [Compound C95, N-(3-Aminobenzyl)-2-ethynylthiazole-4-carboxamide] fall in the same range of EC50: 1000 to 5000 nM for the first, 1000 to 5000 nM for the second.

Compared with `C#Cc1nc(C(=O)N[C@H](C)c2cccc(Cl)c2)cs1` [Compound C67, (R)—N-(1-(3-Chlorophenyl)ethyl)-2-ethynylthiazole-4-carboxamide], `C#Cc1nc(C(=O)N[C@@H](C)c2cccc(Cl)c2)cs1` [Compound C69, (S)—N-(1-(3-Chlorophenyl)ethyl)-2-ethynylthiazole-4-carboxamide] is lower in EC50: 1000 to 5000 nM for the first, ≤ 200 nM for the second.

Compared with `C#Cc1nc(C(=O)NC2(c3cccc(Cl)c3)CC2)cs1` [Compound C68, N-(1-(3-Chlorophenyl)cyclopropyl)-2-ethynylthiazole-4-carboxamide], `C#Cc1nc(C(=O)NCCc2cccc(N)c2)cs1` [Compound C85, N-(3-Aminophenethyl)-2-ethynylthiazole-4-carboxamide] is higher in EC50: 200 to 1000 nM for the first, 1000 to 5000 nM for the second. The first is the more potent here.

`C#Cc1nc(C(=O)N[C@@H]2CCc3ccccc32)cs1` [Compound C72, (R)—N-(2,3-Dihydro-1H-inden-1-yl)-2-ethynylthiazole-4-carboxamide] and `C#Cc1nc(C(=O)NC2CCN(c3ccccc3)CC2)cs1` [Compound C78, 2-Ethynyl-N-(1-phenylpiperidin-4-yl)thiazole-4-carboxamide] fall in the same range of EC50: 200 to 1000 nM for the first, 200 to 1000 nM for the second.

`C#Cc1nc(C(=O)NCc2ccc(CCC(=O)OC)cc2)cs1` [Compound C73, Methyl 3-(4-((2-ethynylthiazole-4-carboxamido)methyl)phenyl)propanoate] and `C#Cc1nc(C(=O)NCc2ccc(NC(C)=O)cc2)cs1` [Compound C89, N-(4-Acetamidobenzyl)-2-ethynylthiazole-4-carboxamide] cannot be ordered by EC50: > 5000 nM for the first, > 5000 nM for the second.

`C#Cc1nc(C(=O)NCc2ccccc2C(=O)OC)cs1` [Compound C74, Methyl 2-((2-ethynylthiazole-4-carboxamido)methyl)benzoate] and `C#Cc1nc(C(=O)NCCc2cccc(C(=O)OC)c2)cs1` [Compound C97, Methyl 3-(2-(2-ethynylthiazole-4-carboxamido)ethyl)benzoate] fall in the same range of EC50: 200 to 1000 nM for the first, 200 to 1000 nM for the second.

First: C#Cc1nc(C(=O)NCCc2ccc(-c3cnn(C)c3)cc2)cs1 [Compound C75, 2-Ethynyl-N-(4-(1-methyl-1H-pyrazol-4-yl)phenethyl)thiazole-4-carboxamide]
Second: C#Cc1nc(C(=O)NCc2ccc(-c3cnn(C)c3)cc2)cs1 [Compound C83, 2-Ethynyl-N-(4-(1-methyl-1H-pyrazol-4-yl)benzyl)thiazole-4-carboxamide]
The EC50 of the first is lower: 200 to 1000 nM for the first, 1000 to 5000 nM for the second.

`C#Cc1nc(C(=O)NCCc2ccc(-c3cn[nH]c3)cc2)cs1` [Compound C76, N-(4-(1H-Pyrazol-4-yl)phenethyl)-2-ethynylthiazole-4-carboxamide] and `C#Cc1nc(C(=O)NCc2ccc(-c3cn[nH]c3)cc2)cs1` [Compound C92, N-(4-(1H-Pyrazol-4-yl)benzyl)-2-ethynylthiazole-4-carboxamide] fall in the same range of EC50: 1000 to 5000 nM for the first, 1000 to 5000 nM for the second.

Compared with `C#Cc1nc(NC(=O)Cc2ccccc2)cs1` [Compound C77, N-(2-Ethynylthiazol-4-yl)-2-phenylacetamide], `N#Cc1nc(C(=O)NCc2ccccc2)cs1` [Compound C90, N-Benzyl-2-cyanothiazole-4-carboxamide] is higher in EC50: 200 to 1000 nM for the first, > 5000 nM for the second.

`C#Cc1nc(C(=O)NCCc2ccc(-c3cccnc3)cc2)cs1` [Compound C79, 2-Ethynyl-N-(4-(pyridin-3-yl)phenethyl)thiazole-4-carboxamide] and `C#Cc1nc(C(=O)NCCc2ccc(Br)cc2)cs1` [Compound C80, N-(4-Bromophenethyl)-2-ethynylthiazole-4-carboxamide] fall in the same range of EC50: 200 to 1000 nM for the first, 200 to 1000 nM for the second.

`C#Cc1nc(C(=O)NCCc2cccc(NS(C)(=O)=O)c2)cs1` [Compound C81, 2-Ethynyl-N-(3-(methylsulfonamido)phenethyl)thiazole-4-carboxamide] and `C#Cc1nc(C(=O)NCCc2ccc(NS(C)(=O)=O)cc2)cs1` [Compound C99, 2-Ethynyl-N-(4-(methylsulfonamido)phenethyl)thiazole-4-carboxamide] fall in the same range of EC50: 1000 to 5000 nM for the first, 1000 to 5000 nM for the second.

`C#Cc1nc(C(=O)NCCc2cccc(NC(C)=O)c2)cs1` [Compound C82, N-(3-Acetamidophenethyl)-2-ethynylthiazole-4-carboxamide] and `C#Cc1nc(C(=O)NCc2cccc(NC(C)=O)c2)cs1` [Compound C94, N-(3-Acetamidobenzyl)-2-ethynylthiazole-4-carboxamide] fall in the same range of EC50: 1000 to 5000 nM for the first, 1000 to 5000 nM for the second.

`C#Cc1nc(C(=O)NCCc2ccc(C(=O)OC)cc2)cs1` [Compound C84, Methyl 4-(2-(2-ethynylthiazole-4-carboxamido)ethyl)benzoate] and `C#Cc1nc(C(=O)NCCc2ccc(NC(C)=O)cc2)cs1` [Compound C88, N-(4-Acetamidophenethyl)-2-ethynylthiazole-4-carboxamide] fall in the same range of EC50: 1000 to 5000 nM for the first, 1000 to 5000 nM for the second.

`C#Cc1nc(C(=O)NCc2ccc3c(c2)OCCO3)cs1` [Compound C86, N-((2,3-Dihydrobenzo[b][1,4]dioxin-6-yl)methyl)-2-ethynylthiazole-4-carboxamide] and `C#Cc1nc(C(=O)NCc2ccc(-c3cc[nH]n3)cc2)cs1` [Compound C91, N-(4-(1H-Pyrazol-3-yl)benzyl)-2-ethynylthiazole-4-carboxamide] fall in the same range of EC50: 1000 to 5000 nM for the first, 1000 to 5000 nM for the second.

First: C#Cc1nc(C(=O)NCCc2cccc([N+](=O)[O-])c2)cs1 [Compound C87, 2-Ethynyl-N-(3-nitrophenethyl)thiazole-4-carboxamide]
Second: C#Cc1nc(C(=O)NCc2ccccc2)cn1C [Compound C98, N-Benzyl-2-ethynyl-1-methyl-1H-imidazole-4-carboxamide]
The EC50 of the first is lower: 200 to 1000 nM for the first, > 5000 nM for the second.
